Reference: PMC5065007 (Journal of the American Chemical Society, 2016)
Where no end group is shown, it is not given here.

Target: δPKC (Homo sapiens, UniProt Q05655)
Assay: AGILE label-free binding assay, δPKC to immobilized peptide

Chain of δPKC (Q05655 whole entry): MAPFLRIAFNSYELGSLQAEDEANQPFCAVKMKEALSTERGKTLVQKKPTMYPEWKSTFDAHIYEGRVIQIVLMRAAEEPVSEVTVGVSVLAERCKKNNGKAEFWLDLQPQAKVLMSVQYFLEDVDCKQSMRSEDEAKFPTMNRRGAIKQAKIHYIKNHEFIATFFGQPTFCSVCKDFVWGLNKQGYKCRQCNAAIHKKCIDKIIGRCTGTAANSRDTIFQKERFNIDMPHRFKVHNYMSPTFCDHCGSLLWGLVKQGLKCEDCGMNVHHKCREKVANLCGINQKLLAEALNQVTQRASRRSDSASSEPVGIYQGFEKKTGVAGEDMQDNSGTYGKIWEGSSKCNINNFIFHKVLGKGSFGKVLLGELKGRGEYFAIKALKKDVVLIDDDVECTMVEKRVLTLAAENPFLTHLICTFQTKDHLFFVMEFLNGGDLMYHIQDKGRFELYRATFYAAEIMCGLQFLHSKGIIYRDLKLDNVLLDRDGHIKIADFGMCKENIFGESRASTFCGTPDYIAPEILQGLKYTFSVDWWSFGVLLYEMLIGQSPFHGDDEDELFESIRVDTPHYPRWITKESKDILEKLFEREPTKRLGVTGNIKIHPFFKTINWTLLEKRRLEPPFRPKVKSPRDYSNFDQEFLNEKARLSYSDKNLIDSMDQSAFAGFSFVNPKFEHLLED

| IC50 [nM] | Kd [nM] | Substance |
| --- | --- | --- |
| 53 | 53 ± 19 | ALSTER [ψPDK] |
| 1250 | 1250 | ALSAER [ψPDK analog] |
